In patent US8834843B2, “Imaging method” (GE Healthcare Limited, priority 2007, dated 2014):
Entries after “also recorded” stand apart in the source; their conditions may differ. Numbered stars: 1 amine (or outer) side, 2 acyl side, 3 side chain; on linkers, the order of the positions; unused ones are H or OH. Bridge positions count the residues as written; N and C are the ends. Side chains are listed from the residue outwards. Peptide text beside a SMILES is read from it. * marks the point of attachment. X1 = C/C(=N\O)C(C)(C)NCCC(CCNC(C)(C)/C(C)=N/O)CCN*; Glutaryl = O=C(CCCC(=O)[*:2])[*:1]; X2 = NC(=O)COCC(=O)NCCOCCOCCOCCN*

Assays:
[1] = tested on: fibrogenic livers in BDL model; experiment: Liver uptake in BDL vs sham rats at 15 days post-op, vs negative control; assay type: in vivo, rat; conditions: one hour post-injection
Experimental: On the appropriate day post surgery BDL and sham animals were removed and put under isoflurane anaesthesia, then each animal was injected with 0.3 ml intravenously (i.v.) via tail vein (˜3MBq). At the appropriate time point post-injection of the test item, each animal was re-anaesthetised with isoflurane, sacrificed by cervical dislocation weighed and the weight recorded via a barcode scanning system. Each animal was dissected and the following organs and tissues were removed and counted using BASIL counter protocol 40 or manual counting:
The BDL and sham animal models were set up as described in Example 3. At 15 days post-operatively, one of Compound 3, Compound 8 or a negative control was administered to each animal and liver uptake assessed as described in Example 3.

αv integrin = experiment: Liver uptake vs alpha-v integrin expression (ELISA) in BDL rat liver; assay type: in vivo; conditions: BDL animals
Experimental: The BDL and sham animal models were set up as described in Example 3. At each of 2, 15 and 28 days post-operatively, ˜3 MBq Compound 8 was administered to animals and the liver uptake assessed as described in Example 3.
The expression of αv integrin in the animals' livers was measured in homogenised livers of BDL- and sham-operated animals. At each of 2, 15 and 28 days post-operatively, animals were sacrificed and their livers removed and stored at −70° C.
Pre-weighed livers were removed from −70° C. freezer and placed into pre-cooled mortar and pestle in the presence of low amount of liquid nitrogen. Liver was crushed to almost a homogenous powder (during the crushing of the liver a small amount of liquid nitrogen was added to keep the tissue frozen at all times). […]
The homogenate was transferred into a pre-chilled glass tissue Dounce and three up and down strokes of the pestle were applied at 4° C. […] Relative protein concentration was determined in each sample using a commercial protein assay kit with BSA standards according to the manufacturer's instruction (Pierce, USA) (BSA aliquots should be made in modified RIPA buffer that was used for the homogenisation). Supernatant from each sample was further diluted between 1:50 and 1:200 in H2O and protein concentration was determined using a […] multi-well Plate reader (iEMS). […]

C/C(=N\O)C(C)(C)NCCC(CCNC(=O)CCCC(=O)NCCCC[C@@H]1NC(=O)CSC[C@@H](C(=O)NCCOCCOCCOCCNC(=O)COCC(N)=O)NC(=O)[C@H](Cc2ccccc2)NC(=O)[C@@H]2CSSC[C@H](NC1=O)C(=O)N[C@@H](CCCNC(=N)N)C(=O)NCC(=O)N[C@@H](CC(=O)O)C(=O)N2)CCNC(C)(C)/C(C)=N/O (some centres unmarked) [Compound 8] ({CH2CO}-K([Glutaryl-X1])CRGDCFC-X2; disulfide 2-6; thioether N-8)
Liver retention/uptake in BDL compared to sham animals (in words) [1]: significantly higher liver uptake; also recorded: significantly retained | Correlation of αv integrin expression with liver uptake (in words) (αv integrin): correlation
